Measured values reported in US6809193B2, “Antisense oligonucleotide compositions and methods for the modulation of JNK proteins” (ISIS Pharmaceuticals, Inc., priority 1997, dated 2004).
Strand notation (5' to 3'): a small letter for the sugar, then the base; units joined by * are phosphorothioate-linked, units joined directly phosphodiester-linked; [ ] holds rarer units or linkages, { } end groups; capitals alone tell only the bases. e = 2'-O-(2-methoxyethyl) (MOE); [5mC] = 5-methylcytosine; d = 2'-deoxy (DNA)

Experiments:
JNK1 mRNA = assay: Northern assay, JNK1 mRNA expression in A549 cells; assay type: cell-based, human; conditions: for RNA % Inhibition: JNK1 mRNA; for dose- and sequence-dependent response on JNK1 mRNA levels: A549 cells, 50, 100, 200 and 400 nM
rat JNK2 mRNA = assay: Northern assay, rat JNK2 (p54a) mRNA in A10 cells; assay type: cell-based; conditions: for inhibition of rat JNK2 mRNA levels: Table 22
Method: (§1) In order to study the role of JNK proteins in animal models, oligonucleotides targeted to the genes encoding JNK1, JNK2 and JNK3 of Rattus norvegicus were prepared. These oligonucleotides are 2′-methoxyethoxy, phosphodiester/2′-hydroxyl, phosphorothioate/2′-methoxyethoxy, phosphodiester “gapmers” in which every cytosine residue is 5-methylcytosine (msc). These antisense compounds were synthesized according to the methods of the disclosure. Certain of these oligonucleotides are additionally specifically hybridizable to JNK genes from other species as indicated herein. The oligonucleotides described in this Example were tested for their ability to modulate rat JNK mRNA levels essentially according to the methods described in the preceding Examples, with the exceptions that the cell line used was rat A10 aortic smooth muscle cells (ATCC No. ATCC CRL-1476) and the probes used were specific for rat JNK1, JNK2 or JNK3 (see infra). A10 cells were grown and treated with oligonucleotides essentially as described by (Cioffi et al. Mol. Pharmacol., 1997, 51, 383).
(§2) These antisense compounds were tested for their ability to modulate levels of p54? (JNK1) and p54a (JNK2) mRNA in A10 cells via Northern assays. Due to the high degree of sequence identity between the human and rat genes, radiolabeled human JNK1 (Example 3) and JNK2 (Example 4) cDNAs functioned as specific probes for the rat homologs.
These antisense compounds were tested for their ability to modulate levels of p54a (JNK2) mRNA in A10 cells using the radiolabeled human JNK2 cDNA as a probe as described supra. Oligonucleotides showing levels of inhibition from≧about 60% to about 100% of rat JNK2 mRNA levels include ISIS Nos. 18254, 18255, 18257, 18258, 18259, 18260 and 18265 (SEQ ID NOS:125, 126, 128, 129, 130, 131 and 136, respectively). These oligonucleotides are preferred embodiments of the invention for modulating rat JNK2 expression. […] These oligonucleotides are thus more preferred embodiments of the invention for modulating rat JNK2 expression. ISIS 18259 (SEQ ID NO:130) was chosen for use in further studies (infra).
(§3) A dose response study was conducted using oligonucleotides targeted to rat JNK1 (ISIS 21859; SEQ ID NO:113) and JNK2 (ISIS 18259; SEQ ID NO:130) and Northern assays.

rat JNK1 mRNA = assay: Northern assay, rat JNK1 (p54?) mRNA in A10 cells; assay type: cell-based; conditions: for inhibition of rat JNK1 mRNA levels: Table 20
Method: as §1, §2, §3

[1] = t = 48 h, 300 nM for initial 20 hours then 200 nM for 4 hours

With “15348 (antisense CTCTCTGTAGGCCCGCTTGG; wingmer, 5' 2'-MOE, phosphorothioate, chemistry not fully specified) [compound 15348]” as the substance, how does the “RNA % Inhibition” value (JNK1 mRNA; [1]) read?
Its value is > 70%.

And the “RNA % Inhibition” value (JNK1 mRNA; t = 72 h)?
Its value is > 70%.

How did the “RNA % Inhibition” value (JNK1 mRNA; [1]) turn out when “15350 (antisense CTCTCTGTAGGCCCGCTTGG; wingmer, 3' P=O 2'-MOE, chemistry not fully specified) [compound 15350]” was run?
Its value is 50.8%.

Which “RNA % Inhibition” value (JNK1 mRNA; [1]) does the source give for “15351 (antisense CTCTCTGTAGGCCCGCTTGG; wingmer, 5' P=O 2'-MOE, chemistry not fully specified) [compound 15351]” here?
Its value is > 70%.

Which “inhibition of rat JNK2 mRNA levels” value (rat JNK2 mRNA; A10 cells) does the source give for “18257 (antisense eGeAeTeAeT*d[5mC]*dA*dA*d[5mC]*dA*dT*dT*d[5mC]*dT*d[5mC]*e[5mC]eTeTeGeT) [compound 18257]” here?
Its value is ≥ 60%.

For “18259 (antisense eGe[5mC]eTe[5mC]eA*dG*dT*dG*dG*dA*d[5mC]*dA*dT*dG*dG*eAeTeGeAeG) [compound 18259]”, which “dose response, levels of mRNA encoding rat JNK2” value (rat JNK2 mRNA; A10 cells, Northern assays) is on record?
Its value is “specifically modulate”.

“18260 (antisense eAeTe[5mC]eTeG*d[5mC]*dG*dA*dG*dG*dT*dT*dT*d[5mC]*dA*eTe[5mC]eGeGe[5mC]) [compound 18260]” was tested. Which “inhibition of rat JNK2 mRNA levels” value (rat JNK2 mRNA; A10 cells) did it give?
Its value is ≥ 60%.

What about the “% Inhibition” value (rat JNK2 mRNA; rat JNK2 (p54a) mRNA in A10 cells, control = LIPOFECTIN only = 0%) of the same substance?
Its value is 59%.

And the “% EXPRESSION” value (rat JNK2 mRNA; rat JNK2 (p54a) mRNA in A10 cells, control = LIPOFECTIN only = 100%)?
Its value is 41%.

“18265 (antisense eTeGeTe[5mC]eA*dG*d[5mC]*dT*d[5mC]*dT*dA*d[5mC]*dA*dT*dT*eAeGeGe[5mC]eA) [compound 18265]” was tested. Which “inhibition of rat JNK2 mRNA levels” value (rat JNK2 mRNA; A10 cells) did it give?
The value was ≥ 60%.

For “21858 (antisense CCTGCTCGCGGCTCCGCGTT; 2'-O-methyl wings, phosphorothioate gap, chemistry not fully specified) [compound 21858]”, which “inhibition of rat JNK1 mRNA levels” value (rat JNK1 mRNA) is on record?
Its value is “at least 90%”.

“21859 (antisense CTCATGATGGCAAGCAATTA; 2'-O-methyl wings, phosphorothioate gap, chemistry not fully specified) [compound 21859]” was tested. Which “dose response, levels of mRNA encoding rat JNK1” value (rat JNK1 mRNA; Northern assays) did it give?
Its value is “specifically modulate levels of mRNA encoding JNK1”.

And the “inhibition of rat JNK1 mRNA levels” value (rat JNK1 mRNA)?
The value was “at least 90%”.

For “21860 (antisense TGTTGTCACGTTTACTTCTG; 2'-O-methyl wings, phosphorothioate gap, chemistry not fully specified) [compound 21860]”, which “inhibition of rat JNK1 mRNA levels” value (rat JNK1 mRNA) is on record?
Its value is “at least 90%”.

How did the “inhibition of rat JNK1 mRNA levels” value (rat JNK1 mRNA) turn out when “21862 (antisense CTAGGGATTTCTGTGGTGTG; 2'-O-methyl wings, phosphorothioate gap, chemistry not fully specified) [compound 21862]” was run?
The value was “at least 90%”.

Which “inhibition of rat JNK1 mRNA levels” value (rat JNK1 mRNA) does the source give for “21864 (antisense TCGTTCCTGCAGTCCTTGCC; 2'-O-methyl wings, phosphorothioate gap, chemistry not fully specified) [compound 21864]” here?
The value was “at least 90%”.

How did the “inhibition of rat JNK1 mRNA levels” value (rat JNK1 mRNA) turn out when “21865 (antisense CCATTTCTCCCATAATGCAC; 2'-O-methyl wings, phosphorothioate gap, chemistry not fully specified) [compound 21865]” was run?
Its value is “at least 90%”.

“21866 (antisense TGAATTCAGGACAAGGTGTT; 2'-O-methyl wings, phosphorothioate gap, chemistry not fully specified) [compound 21866]” was tested. Which “inhibition of rat JNK1 mRNA levels” value (rat JNK1 mRNA) did it give?
The value was “at least 90%”.

For “C^sC^sA^sA^sG^sC^sG^sG^sG^sC^sC^sT^sA^sC^sA^sG^sA^sG^sA^sG (sense dC*dC*dA*dA*dG*dC*dG*dG*dG*dC*dC*dT*dA*dC*dA*dG*dA*dG*dA*dG) [ISIS 14320, reference compound]”, which “dose- and sequence-dependent response on JNK1 mRNA levels” value (JNK1 mRNA) is on record?
The value was “neither of the control oligonucleotides effect any consistent response”.

“C^sT^sT^sT^sC^sC^sG^sT^sT^sG^sG^sA^sC^sC^sC^sC^sT^sG^sG^sG (dC*dT*dT*dT*dC*dC*dG*dT*dT*dG*dG*dA*dC*dC*dC*dC*dT*dG*dG*dG; further chemistry not given here) [ISIS 14321, reference compound]” was tested. Which “dose- and sequence-dependent response on JNK1 mRNA levels” value (JNK1 mRNA) did it give?
Its value is “neither of the control oligonucleotides effect any consistent response”.
